The results in this text go back to ChEMBL document CHEMBL4340569, “Optimization of a small-molecule Lipid II binder” (Bioorg Med Chem Lett, 2019).

The first test relates to Enterococcus faecium. Nature of the test: Antimicrobial activity against Enterococcus faecium EF1509 by broth dilution method. The class given is functional.
Conditions: not given
A general note: In broth dilution the organism is exposed to a series of concentrations in liquid medium.
In turn, `ClCCN(/C=C/c1cc(-c2cccc(Br)c2)cc(-c2cccc(Br)c2)[o+]1)CCCl` yielded an MIC of 49.3 µM.

In the case of `Brc1ccc(-c2cc(/C=C/c3ccc(N4CCOCC4)cc3)[o+]c(-c3ccc(Br)cc3)c2)cc1`, the MIC was over 80 µM.

`O=C(c1ccccc1)N1CCN(c2ccc(/C=C/c3cc(-c4ccc(F)cc4)cc(-c4ccc(F)cc4)[o+]3)cc2)CC1` displayed an MIC of 57 µM.

As to `CN(C)c1ccc(/C=C/c2ccc(/C=C/c3cc(-c4ccc(Br)cc4)cc(-c4ccc(Br)cc4)[o+]3)cc2)cc1`, the MIC is over 80 µM.

For `Brc1ccc(-c2cc(/C=C/c3ccc(N4CCCCC4)cc3)[o+]c(-c3ccc(Br)cc3)c2)cc1`, the MIC was over 80 µM.

In the case of `CN1/C(=C/C=C/c2cc(-c3ccc(Br)cc3)cc(-c3ccc(Br)cc3)[o+]2)C(C)(C)c2cc(Cl)ccc21`, the MIC stood at 22.5 µM.

For the compound `CN(CCO)c1ccc(/C=C/c2cc(-c3ccc(Br)cc3)cc(-c3ccc(Br)cc3)[o+]2)cc1`, the MIC is over 80 µM.

With `CN1/C(=C/c2ccc(/C=C/c3cc(-c4ccc(Br)cc4)cc(-c4ccc(Br)cc4)[o+]3)cc2)C(C)(C)c2ccccc21`, inhibition of growth (MIC) required 12.2 µM.

`CCN(CC)c1ccc(/C=C/c2cc(-c3ccc(Br)cc3)cc(-c3ccc(Br)cc3)[o+]2)cc1` returned an MIC of over 80 µM.

Compound `CC(C)(C)OC(=O)N1CCN(c2ccc(/C=C/c3cc(-c4ccc(F)cc4)cc(-c4ccc(F)cc4)[o+]3)cc2)CC1` returned an MIC of over 80 µM.

Another test concerns Staphylococcus aureus. Description: Antimicrobial activity against Staphylococcus aureus ATCC […] by broth dilution method. The class given is functional. Particulars: ATCC 29213.
Turning to `ClCCN(/C=C/c1cc(-c2cccc(Br)c2)cc(-c2cccc(Br)c2)[o+]1)CCCl`, 49.3 µM was the least that counted as inhibitory (MIC).

For the compound `Brc1ccc(-c2cc(/C=C/c3ccc(N4CCOCC4)cc3)[o+]c(-c3ccc(Br)cc3)c2)cc1`, the minimum inhibitory concentration (MIC) is over 80 µM.

Turning to `O=C(c1ccccc1)N1CCN(c2ccc(/C=C/c3cc(-c4ccc(F)cc4)cc(-c4ccc(F)cc4)[o+]3)cc2)CC1`, the MIC came out at 28.5 µM.

As for `CN(C)c1ccc(/C=C/c2ccc(/C=C/c3cc(-c4ccc(Br)cc4)cc(-c4ccc(Br)cc4)[o+]3)cc2)cc1`, the minimal inhibitory concentration (MIC) was over 80 µM.

With `Brc1ccc(-c2cc(/C=C/c3ccc(N4CCCCC4)cc3)[o+]c(-c3ccc(Br)cc3)c2)cc1`, the MIC is over 80 µM.

In turn, `CN1/C(=C/C=C/c2cc(-c3ccc(Br)cc3)cc(-c3ccc(Br)cc3)[o+]2)C(C)(C)c2cc(Cl)ccc21` registered an MIC of 45.1 µM. This lies in the double-digit micromolar range.

Regarding `CN(CCO)c1ccc(/C=C/c2cc(-c3ccc(Br)cc3)cc(-c3ccc(Br)cc3)[o+]2)cc1`, the MIC is over 80 µM.

`CN1/C(=C/c2ccc(/C=C/c3cc(-c4ccc(Br)cc4)cc(-c4ccc(Br)cc4)[o+]3)cc2)C(C)(C)c2ccccc21` displayed an MIC of 24.5 µM.

As to `CCN(CC)c1ccc(/C=C/c2cc(-c3ccc(Br)cc3)cc(-c3ccc(Br)cc3)[o+]2)cc1`, the MIC was over 80 µM.

As to `CC(C)(C)OC(=O)N1CCN(c2ccc(/C=C/c3cc(-c4ccc(F)cc4)cc(-c4ccc(F)cc4)[o+]3)cc2)CC1`, the MIC is over 80 µM.

For orientation: MIC means the smallest concentration in the dilution series that meets the test's criterion for growth inhibition.
